Results as given in US20170363618A1, “AGE-MODIFIED CELLS AND METHODS FOR MAKING AGE-MODIFIED CELLS” (MEMORIAL SLOAN-KETTERING CANCER CENTER, priority 2015, published 2017).
“Also recorded” adds a separate entry of the source. Like-named read-outs stand apart in the source and are kept apart here.

Tests used:
[1] = system: young (348) and old (204) fibroblasts; experiment: 10-day culture with compounds, cell survival measured by cell number counts; assay type: cell-based
Description: Cell numbers are calculated as a mean of 8 wells.
Control cultures of young cells were still healthy after 10 days, and the compounds all had effects on viability (FIG. 15).

[2] = system: young (348) and old (204) fibroblasts; experiment: Immunofluorescence detection of aging marker expression in fibroblasts after three-day compound treatment; assay type: cell-based, human; conditions: for shape of youthful marker expression over the three doses (C1-C3): in some cases, highest dose gave lower expression than middle or lower dose
Description: Cell samples were all supplied by Coriell Cell Repositories. The cell line from a young individual (<20 years) was GM03348 (“348”). The cell line from an old individual (>65 years) was GM04204 (“204”).
Cells were cultured in human fibroblast medium made from 95% Gibco's Minimum Essential Medium, 4.5% fetal bovine serum, and 0.5% Penicillin/Streptomycin. Cells were plated on 15 cm plates and passaged every 2-3 days as necessary, and fed every other day. For experimentation, cells were plated in 96 well plates or 6 well plates. Before fixation, cells were treated with a preextraction buffer containing 20 mM Hepes pH 7.9, 0.5% Triton X-100, 50 mM NaCl, and 300 mM sucrose for 7 minutes at 4° C. to reduce the high levels of background seen in initial stainings. Cells were then fixed with 4% paraformaldehyde for 15 minutes at room temperature.
After fixing, cells were incubated in Permeablization Buffer containing 0.3% Triton X-100 and 1% BSA in PBS for 35 minutes at room temperature. Cells were then incubated with primary antibodies to markers (1:1000 in PBS) at 4° C. overnight. Following incubation, cells were washed 3× with PBS, then incubated with secondary antibodies (1:500 in PBS) for 30 minutes at room temperature, protected from light. Following this incubation, cells were washed 1× with PBS, then incubated with DAPI 1:1000 in PBS for 7 minutes at room temperature, protected from light, then washed 2× with PBS. Stainings were imaged using either using the Hamamatsu Olympus IX81 microscope, or the PerkinElmer Operetta High Content Imaging System. The expression level of each marker was determined relative to the untreated control on the same treatment plate (FIGS. 11, 13, 15 and 16), or to the average of the untreated controls across all treatment plates for the same marker (FIGS. 12 and 14).
Imaging of immunofluorescence was done using the PerkinElmer Operetta High Content Imaging System. Each well had several (>15) random spots in each plate imaged, and staining intensity quantification was done using the Operetta Harmony software. Analysis is based on mean intensity levels of each staining within a single well compared to mean intensity levels in other wells.
(§1) Cells were then treated with each of the six compounds for three days. Each compound had both a young and old untreated control, as well as the three pre-determined concentrations for both young and old cells. In addition, a six-well plate was set up for Decitabine, Zebularine, Chaetocin and SW155246, with an additional 3 cm plate for use as untreated controls for quantification of global levels of DNA methylation. After treatment, cells were stained with immunofluorescence for HP1α, H1, γH2Ax, Lamin B1, H3K9me3 and […].

[3] = system: global DNA levels of 5-mC methylation; experiment: Global 5-mC DNA methylation quantification (colorimetric Methylflash kit) in treated fibroblasts; assay type: cell-based, human; conditions: 3 days of treatment, young and old fibroblasts, three concentrations
Description: Genomic DNA was extracted from treated cell samples using the Quick-gDNA MicroPrep kit (Zymo). Global levels of DNA methylation were measured using the colorimetric Methylflash Methylated DNA quantification kit (Epigentek) according to manufacturer instructions, and read using the PerkinElmer ENSPIRE plate reader. gDNA sample size was 50 ng. Analysis was performed according to manufacturer instructions.
as §1

motor neurons (MNs) = conditions: ALS motor neuron screen, 72 hr with compound; cited from earlier work
[4] = 3-day treatment, primary fibroblasts from young and old individuals, immunofluorescence vs untreated control
[5] = 3-day treatment, young and old fibroblasts

CN1C(=O)[C@@]23C[C@]4([C@]56C[C@@]78SS[C@@](CO)(C(=O)N7[C@H]5Nc5ccccc56)N(C)C8=O)c5ccccc5N[C@@H]4N2C(=O)[C@]1(CO)SS3 [Chaetocin, (3S,3'S,5aR,5aR,10bR,10′bR,11aS,11′aS)-2,2′,3,3′,5a,5′a,6,6′-octahydro-3,3′-bis(hydroxymethyl)-2,2′-dimethyl-[10b,10′b(11H,11′H)-bi3,11a-epidithio-11aH-pyrazino[1′,2′:1,5]pyrrolo[2,3-b]indole]-1,1′,4,4′-tetrone]
toxicity / effect on viability after prolonged culture (cell number) ([1]; 10-day culture, young cells (control cultures still healthy)): highest toxicity

Nc1ncn([C@H]2C[C@H](O)[C@@H](CO)O2)c(=O)n1 [Decitabine, 5-aza-2-deoxycytidine]
toxicity / effect on viability after prolonged culture (cell number) [1]: Much less toxicity

CO[C@H]1C[C@@H]2CC[C@@H](C)[C@@](O)(O2)C(=O)C(=O)N2CCCC[C@H]2C(=O)O[C@H]([C@H](C)C[C@@H]2CC[C@@H](O)[C@H](OC)C2)CC(=O)[C@H](C)/C=C(\C)[C@@H](O)[C@@H](OC)C(=O)[C@H](C)C[C@H](C)/C=C/C=C/C=C/1C [Rapamycin]
toxicity / effect on viability after prolonged culture (cell number) [1]: Toxicity was also seen

Oc1ccc(C=Cc2cc(O)cc(O)c2)cc1 [Resveratrol]
toxicity / effect on viability after prolonged culture (cell number) [1]: Toxicity was also seen
effect on markers in young cells compared to old cells ([2]; 3-day culture): greater in young cells compared to old cells; also recorded: more of an effect on young cells than on old cells
levels of all markers (H1, HP1α, H3K9me3, H3K27me3, LaminB1, yH2Ax) ([2]; 3-day culture, young (348) and old (204) fibroblasts, normalized to untreated, FIG. 11): increased
levels of the five markers of a younger state (H1, HP1α, H3K9me3, H3K27me3, LaminB1) ([2]; 3-day culture, young and old fibroblasts): all increased
levels of HP1α (heterochromatin marker, marker of young cellular age) [2, 4]: increasing
levels of histone protein H1 (marker of young cellular age) [2, 4]: increasing

O=[N+]([O-])c1cc(S(=O)(=O)Nc2ccc(O)c3ccccc23)ccc1Cl [SW155246, 4-Chloro-N-(4-hydroxy-1-naphthalenyl)-3-nitro-benzenesulfonamide]
global levels of 5-mC DNA methylation [3]: increased with both the highest and lowest concentrations, but decreased slightly with the middle concentration; also recorded: did not consistently go down
toxicity / effect on viability after prolonged culture (cell number) [1]: Much less toxicity
shape of youthful marker expression over the three doses (C1-C3) ([2]; 3-day treatment): inverted U shaped curve
levels of HP1α (heterochromatin marker, marker of young cellular age) [2, 4]: decreasing
levels of histone protein H1 (marker of young cellular age) [2, 4]: decreasing
levels of γH2AX (DNA damage marker, marker of old cellular age) [2, 4]: increasing
expression of the six markers tested [2, 5]: modulated

O=c1ncccn1[C@@H]1O[C@H](CO)[C@@H](O)[C@H]1O [Zebularine, 1-(β-D-Ribofuranosyl)-2(1H)-pyrimidinone]
global levels of 5-mC DNA methylation [3]: decrease
toxicity / effect on viability after prolonged culture (cell number) [1]: Much less toxicity
shape of youthful marker expression over the three doses (C1-C3) ([2]; 3-day treatment): inverted U shaped curve
expression of the six markers tested [2, 5]: modulated

O=C1Cc2c([nH]c3ccc(Br)cc23)-c2ccccc2N1 [kenpaullone]
survival of motor neurons after trophic factor withdrawal (motor neurons (MNs)): impressive ability to prolong the healthy survival of MNs
